Results reported in US10030016B2 (Sunesis Pharmaceuticals, Inc., priority 2009, dated 2018).
Where two headings read alike, the source gives them in different places.

Tests used:
[1] = test system: phospho-akt (Thr308) in PC-3 cells; assay: Inhibition of phospho-akt (Thr308) in PC-3 cells, MSD phospho-akt 308 ELISA kit; format: cell-based; details: Homo sapiens, inhibition of P308 Akt in PC-3 cells using MSD, 2 hours, no serum, read-out: EC50
Summary of the method: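 PC-3 cells were seeded overnight in growth medium with 10% FBS, then exposed to compound serially diluted threefold in serum-free medium for 2 hours. Lysates were captured overnight at 4 degrees on MSD plates and phospho-Akt Thr308 was detected electrochemiluminescently, against DMSO high and 5 μM wortmannin low controls.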

PDK1 = PDK1 (Homo sapiens (Human), UniProt O15530); assay: PDK1 kinase assay (coupled PDK1/AKT/FAM-crosstide assay, IMAP fluorescence polarization); format: biochemical; details: inhibition of PDK1 in vitro
PDK1, sequence (O15530 51-359): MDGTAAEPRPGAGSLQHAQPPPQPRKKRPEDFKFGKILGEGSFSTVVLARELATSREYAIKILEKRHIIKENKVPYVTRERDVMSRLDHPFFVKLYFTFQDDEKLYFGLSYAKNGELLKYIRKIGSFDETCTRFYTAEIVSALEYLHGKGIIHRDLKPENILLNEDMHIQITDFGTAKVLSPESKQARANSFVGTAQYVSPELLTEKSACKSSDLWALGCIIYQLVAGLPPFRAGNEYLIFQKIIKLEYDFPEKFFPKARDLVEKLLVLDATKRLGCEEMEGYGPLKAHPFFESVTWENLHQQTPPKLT
Summary of the method: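 PDK1 activity is measured indirectly through activation of a PIFtide-fused AKT2 construct that phosphorylates FAM-crosstide (100 nM). The reaction uses 0.75 nM PDK1, 40 μM ATP, 30 min, 25° C, with IMAP polarization detection.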

Row | EC50 [1] [µM] | IC50 (PDK1) [µM] | EC50 ([1]; PC-3, 2 h) [µM] | Structure (SMILES)
1 | > 10 | 1 to 5 |  | CNc1ncc2cc(O[C@@H](C)CNc3ncc(C#N)cc3C(=O)N[C@@H](C)c3ccc(F)cc3)ccc2n1 [Example 253, 5-cyano-N-((S)-1-(4-fluorophenyl)ethyl)-2-((S)-2-(2-(methylamino)quinazolin-6-yloxy)propylamino)nicotinamide]
2 |  | 0.1 to 1 | 1 to 10 | CNc1ncc2cc(O[C@@H](C)CNc3ncc(C#N)nc3C(=O)N[C@@H](C)c3ccc(F)c(F)c3)ccc2n1 [Example 254, 6-cyano-N-((S)-1-(3,4-difluorophenyl)ethyl)-3-((S)-2-(2-(methylamino)quinazolin-6-yloxy)propylamino)pyrazine-2-carboxamide]
3 | < 1 | < 0.1 |  | CNc1ncc2cc(C#CCNc3ncc(C#N)cc3C(=O)N[C@@H](C)c3ccc(F)cc3)ccc2n1 [Example 255, (S)-5-cyano-N-(1-(4-fluorophenyl)ethyl)-2-(3-(2-(methylamino)quinazolin-6-yl)prop-2-ynylamino)nicotinamide]
4 | 1 to 10 | < 0.1 |  | CNc1ncc2cc(C#CCNc3ncc(C(F)(F)F)cc3C(=O)NCc3ccc(F)c(F)c3)ccc2n1 [Example 256, N-(3,4-difluorobenzyl)-2-(2-(2-(methylamino)quinazolin-6-yl)prop-2-ynylamino)-5-(trifluoromethyl)nicotinamide]
5 | > 10 | 0.1 to 1 |  | N#Cc1cnc2c(c1)c(NCc1ccc(F)c(F)c1)nn2Cc1ccc(-c2cnc(N)cn2)cc1 [Example 259, 1-(4-(5-aminopyrazin-2-yl)benzyl)-3-(3,4-difluorobenzylamino)-1H-pyrazolo[3,4-b]pyridine-5-carbonitrile]
6 | 1 to 10 | 0.1 to 1 |  | Nc1n[nH]c2ncc(-c3ccc(CNc4ncc(C(F)(F)F)cc4C(=O)NC4CC4)cc3)cc12 [Example 260, 2-(4-(3-amino-1H-pyrazolo[3,4-b]pyridin-5-yl)benzylamino)-N-cyclopropyl-5-(trifluoromethyl)nicotinamide]
7 | 1 to 10 | < 0.1 |  | COc1cc(F)ccc1NC(=O)c1cc(C(F)(F)F)cnc1NCc1ccc(-c2cnc3[nH]nc(N)c3c2)cc1 [Example 261, 2-(4-(3-amino-1H-pyrazolo [3,4-b]pyridin-5-yl)benzylamino)-N-(4-fluoro-2-methoxyphenyl)-5-(trifluoromethyl)nicotinamide]
8 | < 1 | < 0.1 |  | Nc1n[nH]c2ncc(-c3ccc(CNc4ncc(C(F)(F)F)cc4C(=O)Nc4cccc(F)c4)cc3)cc12 [Example 262, 2-(4-(3-amino-1H-pyrazolo [3,4-b]pyridin-5-yl)benzylamino)-N-(3-fluorophenyl)-5-(trifluoromethyl) nicotinamide]
9 | < 1 | < 0.1 |  | Nc1n[nH]c2ncc(-c3ccc(CNc4ncc(C(F)(F)F)cc4C(=O)Nc4ccc(F)c(F)c4)cc3)cc12 [Example 263, 2-(4-(3-amino-1H-pyrazolo [3,4-b]pyridin-5-yl)benzylamino)-N-(3,4-difluorophenyl)-5-(trifluoromethyl) nicotinamide]
10 | 1 to 10 | < 0.1 |  | Nc1n[nH]c2ncc(-c3ccc(CNc4ncc(C(F)(F)F)cc4C(=O)NCC4CCCC4)cc3)cc12 [Example 264, 2-(4-(3-amino-1H-pyrazolo [3,4-b]pyridin-5-yl)benzylamino)-N-(cyclopentylmethyl)-5-(trifluoromethyl) nicotinamide]
11 |  | < 0.1 | 1 to 10 | Nc1n[nH]c2ncc(-c3ccc(CNc4ncc(C(F)(F)F)cc4C(=O)NCC4CCCO4)cc3)cc12 (centres unmarked) [Example 265, 2-(4-(3-amino-1H-pyrazolo [3,4-b]pyridin-5-yl)benzylamino)-N-((tetrahydrofuran-2-yl)methyl)-5-(trifluoromethyl) nicotinamide]
12 | > 10 | 0.1 to 1 |  | Nc1n[nH]c2ncc(-c3ccc(CNc4ncc(C(F)(F)F)cc4C(=O)N[C@H](CO)c4ccc(F)cc4)cc3)cc12 [Example 266]
13 | < 1 | < 0.1 |  | Nc1n[nH]c2ncc(-c3ccc(CNc4ncc(C(F)(F)F)cc4C(=O)Nc4ccc(F)nc4)cc3)cc12 [Example 267, 2-(4-(3-amino-1H-pyrazolo [3,4-b]pyridin-5-yl)benzylamino)-N-(6-fluoropyridin-3-yl)-5-(trifluoromethyl) nicotinamide]
14 | > 10 | 0.1 to 1 |  | Nc1n[nH]c2ncc(-c3ccc(CNc4ncc(C(F)(F)F)cc4C(=O)NCC4CCOC4)cc3)cc12 (centres unmarked) [Example 268, 2-(4-(3-amino-1H-pyrazolo [3,4-b]pyridin-5-yl)benzylamino)-N-((tetrahydro-furan-3-yl)methyl)-5-(trifluoromethyl) nicotinamide]
15 | 1 to 10 | < 0.1 |  | Nc1n[nH]c2ncc(-c3ccc(CNc4ncc(C(F)(F)F)cc4C(=O)NCCC4CC4)cc3)cc12 [Example 269, 2-(4-(3-amino-1H-pyrazolo [3,4-b]pyridin-5-yl)benzylamino)-N-(2-cyclopropylethyl)-5-(trifluoromethyl) nicotinamide]
16 | 1 to 10 | 1 to 5 |  | Cn1cnc(CNC(=O)c2cc(C(F)(F)F)cnc2NCc2ccc(-c3cnc4[nH]nc(N)c4c3)cc2)c1 [Example 270, 2-(4-(3-amino-1H-pyrazolo [3,4-b]pyridin-5-yl)benzylamino)-N-((1-methyl-1H-imidazol-4-yl)methyl)-5-(trifluoromethyl) nicotinamide]
17 | 1 to 10 | 0.1 to 1 |  | C#CCNC(=O)c1cc(C(F)(F)F)cnc1NCc1ccc(-c2cnc3[nH]nc(N)c3c2)cc1 [Example 271, 2-(4-(3-amino-1H-pyrazolo [3,4-b]pyridin-5-yl)benzylamino)-N-(prop-2-ynyl)-5-(trifluoromethyl) nicotinamide]
18 | 1 to 10 | 0.1 to 1 |  | Nc1n[nH]c2ncc(-c3ccc(CNc4ncc(C(F)(F)F)cc4C(=O)NCC4CC4)cc3)cc12 [Example 272, 2-(4-(3-amino-1H-pyrazolo [3,4-b]pyridin-5-yl)benzylamino)-N-(cyclopropylmethyl)-5-(trifluoromethyl) nicotinamide]
19 | 1 to 10 | < 0.1 |  | Nc1n[nH]c2ncc(-c3ccc(CNc4ncc(C(F)(F)F)cc4C(=O)NCc4cscn4)cc3)cc12 [Example 273, 2-(4-(3-amino-1H-pyrazolo [3,4-b]pyridin-5-yl)benzylamino)-N-(thiazol-4-ylmethyl)-5-(trifluoromethyl) nicotinamide]
20 | 1 to 10 | < 0.1 |  | Nc1n[nH]c2ncc(-c3ccc(CNc4ncc(C(F)(F)F)cc4C(=O)Nc4ccccn4)cc3)cc12 [Example 274]
21 | > 10 | > 5 |  | C[C@@H](NC(=O)c1cc(C(F)(F)F)cnc1NCc1ccc(-c2cnc3[nH]nc(N)c3c2)cc1)c1ccc(Br)cc1 [Example 275, (R)-2-(4-(3-amino-1H-pyrazolo[3,4-b]pyridin-5-yl)benzylamino)-N-(1-(4-bromophenyl)ethyl)-5-(trifluoromethyl) nicotinamide]
22 | 1 to 10 | < 0.1 |  | Nc1n[nH]c2ncc(-c3ccc(CNc4ncc(C(F)(F)F)cc4C(=O)Nc4ccc(C(F)(F)F)nc4)cc3)cc12 [Example 276, 2-(4-(3-amino-1H-pyrazolo [3,4-b]pyridin-5-yl)benzylamino)-5-(trifluoromethyl)-N-(6-(trifluoromethyl)pyridin-3-yl)nicotinamide]
23 | < 1 | < 0.1 |  | C[C@H](NC(=O)c1cc(C(F)(F)F)cnc1NCc1ccc(-c2cnc3[nH]nc(N)c3c2)cc1)c1ccc(Cl)cc1 [Example 277, 2-(4-(3-amino-1H-pyrazolo [3,4-b]pyridin-5-yl)benzylamino)-N-(1-(4-chlorophenyl)ethyl)-5-(trifluoromethyl) nicotinamide]
24 | < 1 | < 0.1 |  | Nc1n[nH]c2ncc(-c3ccc(CNc4ncc(C(F)(F)F)cc4C(=O)Nc4c(F)cc(F)cc4F)cc3)cc12 [Example 278, 2-(4-(3-amino-1H-pyrazolo [3,4-b]pyridin-5-yl)benzylamino)-5-(trifluoromethyl)-N-(2,4,6-trifluorophenyl)nicotinamide]
25 | < 1 | < 0.1 |  | Nc1n[nH]c2ncc(-c3ccc(CNc4ncc(C(F)(F)F)cc4C(=O)NCc4ccc(Cl)cc4)cc3)cc12 [Example 279, 2-(4-(3-amino-1H-pyrazolo [3,4-b]pyridin-5-yl)benzylamino)-N-(4-chlorobenzyl)-5-(trifluoromethyl)nicotinamide]
26 | 1 to 10 | 0.1 to 1 |  | CC(C)c1ccc(NC(=O)c2cc(C(F)(F)F)cnc2NCc2ccc(-c3cnc4[nH]nc(N)c4c3)cc2)cc1 [Example 280, 2-(4-(3-amino-1H-pyrazolo [3,4-b]pyridin-5-yl)benzylamino)-N-(4-isopropylphenyl)-5-(trifluoromethyl)nicotinamide]
27 | < 1 | < 0.1 |  | Nc1n[nH]c2ncc(-c3ccc(CNc4ncc(C(F)(F)F)cc4C(=O)NCc4cccc(Cl)c4)cc3)cc12 [Example 281, 2-(4-(3-amino-1H-pyrazolo [3,4-b]pyridin-5-yl)benzylamino)-N-(3-chlorobenzyl)-5-(trifluoromethyl)nicotinamide]
28 | 1 to 10 | < 0.1 |  | C[C@H](NC(=O)c1cc(C(F)(F)F)cnc1NCc1ccc(-c2cnc3[nH]nc(N)c3c2)cc1)c1ccc(Br)cc1 [Example 282, (S)-2-(4-(3-amino-1H-pyrazolo [3,4-b]pyridin-5-yl)benzylamino)-N-(1-(4-bromophenyl)ethyl)-5-(trifluoromethyl)nicotinamide]
